The text below walks through data of PubChem BioAssay (NCI).

Each structure is given as a SMILES string.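 Assay format: 96-well plates, 48-hour exposure. At the TGI there is no net growth.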 *1 amine or outer side, *2 acyl side, *3 side chain or, on linkers, in order; H or OH if unused. Where a SMILES comes first, the peptide text is derived from it. Bridges are numbered along the chain shown (N, C = ends). Roman numbers before positions name the chains, in order. [ ]: non-standard residue; d: D form. ξ: configuration not given here. X54 = N=C(N)NCCC[C@@H](NC(=N)CCCCCCC(=N)N[C@H](CCCNC(=N)N)C(=O)[*:2])C(=O)[*:1]; dIgl = N[C@@H](C(=O)O)C1Cc2ccccc2C1; Hyp = O=C(O)[C@@H]1C[C@@H](O)CN1; ξIgl = NC(C(=O)O)C1Cc2ccccc2C1; ξOic = O=C(O)C1CC2CCCCC2N1; ξR = N=C(N)NCCCC(N)C(=O)O; ξP = O=C(O)C1CCCN1; ξS = NC(CO)C(=O)O

What all share (test): NCI tumour cell line growth inhibition, 48 h
Experiment [1] deals with NCI/ADR-RES ovarian.
In experiment [2] the test system is SW-620 colon.
Experiment [3] has as its system PC-3 prostate.
For experiment [4], the system named is OVCAR-3 ovarian.
For experiment [5], the system named is U251 CNS.
Experiment [6] relates to A549 NSCLC.
Experiment [7] concerns SF-268 CNS.
Experiment [8] deals with 786-0 renal.
Experiment [9] has as its system SNB-75 CNS.
Experiment [10] concerns UO-31 renal.

On to `c1coc(-c2nccc3c2[nH]c2ccccc23)c1`, for which the TGI in [1], in experiment [2], in experiment [3], in [4], in experiment [5] and in experiment [6] was greater than 100 µM in each case. Also, the TGI in experiment [7] and in experiment [8] was greater than 100 µM in each case.

`CCOC(=O)/C=C/C(=O)O/C=C/[N+](=O)[O-]`: the TGI in experiment [1], in experiment [2], in [9], in experiment [10], in [4] and in experiment [5] was greater than 100 µM throughout. The TGI in experiment [7] and in experiment [8] was greater than 100 µM in each case.

For the compound `N=C(N)NCCCC(NC(=O)C1CC2CCCCC2N1C(=O)[C@H](NC(=O)C(CO)NC(=O)C(NC(=O)CNC(=O)[C@@H]1C[C@@H](O)CN1C(=O)C1CCCN1C(=O)C(CCCNC(=N)N)NC(=O)[C@@H](CCCNC(=N)N)NC(=N)CCCCCCC(=N)N[C@H](CCCNC(=N)N)C(=O)NC(CCCNC(=N)N)C(=O)N1CCCC1C(=O)N1C[C@H](O)C[C@H]1C(=O)NCC(=O)NC(C(=O)NC(CO)C(=O)N[C@@H](C(=O)N1C(C(=O)NC(CCCNC(=N)N)C(=O)O)CC2CCCCC21)C1Cc2ccccc2C1)C1Cc2ccccc2C1)C1Cc2ccccc2C1)C1Cc2ccccc2C1)C(=O)O` (some centres not stated) (I: [ξR][ξP][Hyp]G[ξIgl][ξS][dIgl][ξOic][ξR]-OH / II: [ξR][ξP][Hyp]G[ξIgl][ξS][dIgl][ξOic][ξR]-OH; linker I:N-II:N via X54), the TGI in experiment [1] is greater than 10 µM; in [2], 6.35 µM; in experiment [10], greater than 10 µM; in experiment [3], 3.59 µM; in experiment [4], 3.4 µM; in experiment [5], 5.35 µM. Further, the TGI was greater than 10 µM in [6], 3.82 µM in experiment [7] and 5.07 µM in experiment [8].

As for `CN(c1ccccc1)S(=O)(=O)c1ccc([N+](=O)[O-])cc1`, the TGI in experiment [1], in experiment [2], in [10], in experiment [3], in [4] and in [5] was greater than 100 µM in each case. For the same compound, the TGI in experiment [6], in experiment [7] and in experiment [8] was greater than 100 µM each time.

As to `Fc1ccc(-c2sc(-c3ccsc3)cc2Cc2ccsc2)cc1`, the TGI in [2], in [9], in [3], in [6], in [7] and in experiment [8] was greater than 10 µM in each case.

With `COc1ccc2c(c1)CC[C@@H]1C2CC[C@]2(C)C(=O)N(CCN(C)C)C(=O)CC12` (some centres not stated), the TGI in experiment [2], in experiment [9], in experiment [10], in experiment [3], in [4] and in experiment [5] was greater than 100 µM in each case. Moreover, the TGI in experiment [6], in experiment [7] and in experiment [8] was greater than 100 µM each time.

Turning to `Nn1c(Nc2ccc(S(N)(=O)=O)cc2)nnc(/C=C/c2c(O)ccc3ccccc23)c1=O`, the TGI in [1] is 54 µM; in experiment [2] it was 45.3 µM; in experiment [10], 57.3 µM; in experiment [3], greater than 100 µM; in experiment [4], 42.8 µM; in experiment [5] it was greater than 100 µM. The results for the TGI in experiment [6], in experiment [7] and in experiment [8] were 92.4 µM, greater than 100 µM and 66.8 µM, respectively.

On to `COc1ccc2c(c1)Oc1cc(O)ccc1[C@H]2c1ccccc1C(=O)NC(C)c1ccccc1` (some centres not stated), for which the TGI amounted to 35.6 µM in experiment [2]; 35 µM in experiment [9]; 25.5 µM in experiment [10]; 29.4 µM in experiment [4]; 29.4 µM in experiment [5]; 31.5 µM in [6]. The TGI in [7] was found to be 45.8 µM; in [8], 34.9 µM.

Turning to `CC(C)OP(=S)(NC(=S)c1ccccc1)OC(C)C`, the TGI in experiment [2], in [9], in experiment [10], in experiment [4], in [5] and in [6] was greater than 100 µM in each case. For the same compound, the TGI in experiment [7] and in experiment [8] was greater than 100 µM each time.

`COc1cccc2c1OC1Sc3ccccc3-c3nn(-c4ccccc4)c-2c31` (configuration not stated): the TGI in [2], in experiment [9], in experiment [10], in [4], in [5] and in experiment [6] was greater than 100 µM throughout. In addition, the TGI in experiment [7] and in experiment [8] was greater than 100 µM each time.

As to `Cc1c(C(=O)O)n2c(=S)[nH]nc2c2ccccc12`, the TGI in experiment [1], in experiment [2], in [10], in experiment [3], in experiment [4] and in [5] was greater than 100 µM in each case. Further, the TGI in experiment [6], in [7] and in experiment [8] was greater than 100 µM each time.

For `Cc1nnc(N)nc1/C=C\c1ccc(Cl)cc1Cl`, the TGI in [1] is greater than 100 µM; in experiment [2], 51.3 µM; in experiment [10], greater than 100 µM; in [3], greater than 100 µM; in experiment [5] it was greater than 100 µM; in [6], greater than 100 µM. The TGI in experiment [7] and in experiment [8] was greater than 100 µM each time.

For `CCC12CCCN(Cc3ccccc3)C1c1c(n(C)c3ccccc13)C(CO)C2` (configuration not stated), the TGI in experiment [2] is 89.2 µM; in experiment [4], 90.7 µM; in [5], 134 µM; in experiment [6], greater than 257 µM; in experiment [7] it was greater than 257 µM; in experiment [8], 79.5 µM.

`Cc1cc(=O)oc2cc(OCCCOc3ccc4c(C)cc(=O)oc4c3)ccc12`: the TGI in experiment [2], in experiment [9], in [10], in experiment [4], in experiment [5] and in [6] was greater than 100 µM each time. The TGI in [7] and in [8] was greater than 100 µM throughout.

With `CC(C)(C)N/N=C(\C(=O)Nc1cccc(Cl)c1)C1C(=O)Nc2ccccc2S1=O` (configuration not stated), the TGI in [2], in [9], in experiment [10], in experiment [4], in experiment [6] and in experiment [7] was greater than 100 µM each time. For the same compound, the TGI in experiment [8] is greater than 100 µM.

Turning to `Cn1cnc(N2CCCC2)c(C#N)c1=S`, the TGI in experiment [1] was greater than 100 µM; in [2], greater than 100 µM; in experiment [10], 70.3 µM; in experiment [3], greater than 100 µM; in experiment [4], greater than 100 µM; in experiment [5] it was greater than 100 µM. The TGI in experiment [6], in experiment [7] and in experiment [8] was greater than 100 µM throughout.

As for `COc1cccc2c1C(=O)c1c(O)c3c(c(O)c1C2=O)C[C@@](O)(C(C)=O)CC3S(=O)(=O)O` (some centres not stated), the TGI is greater than 100 µM in [2]; greater than 93 µM in experiment [9]; greater than 100 µM in experiment [10]; greater than 100 µM in experiment [4]; greater than 100 µM in [5]; greater than 100 µM in experiment [6]. Besides, the TGI in experiment [7] and in experiment [8] was greater than 100 µM each time.

Turning to `CCc1cc(C)cc2[n+]1CC=C2`, the TGI in experiment [2] was greater than 100 µM; in experiment [9] it was 70.6 µM; in [10], 68.9 µM; in experiment [5] it was greater than 100 µM; in experiment [6], 78.6 µM; in experiment [7], greater than 100 µM. The same compound came in with a TGI in experiment [8] greater than 100 µM.

Regarding `Nc1nc(NCCOCP(=O)(O)O)c([N+](=O)[O-])c(=O)[nH]1`, the TGI in [2], in experiment [9], in experiment [10], in experiment [4], in experiment [5] and in experiment [6] was greater than 100 µM in each case. Moreover, the TGI in [7] and in experiment [8] was greater than 100 µM in each case.

For the compound `CN1CCN(C(=O)CCC(=O)Nc2cc3c(c4ccccc24)-c2ccc4ccccc4c2C3)CC1`, the TGI was determined as 4.55 µM in experiment [1]; 3.28 µM in [10]; 3.37 µM in experiment [3]; 3.22 µM in experiment [4]; 4.11 µM in [5]; 3.96 µM in [6]. Moreover, the TGI in experiment [7] turned out to be 3.57 µM; in [8], 3.13 µM.

Regarding `COC1=C[C@]2(CCC(=O)O2)[C@@H]2Cc3ccccc3[C@H](O)[C@@H]2C1=O`, the TGI in experiment [1] is greater than 100 µM; in experiment [2] it was 88.8 µM; in experiment [10], greater than 100 µM; in [3], greater than 100 µM; in experiment [4] it was greater than 100 µM; in [5] it was 79.6 µM. In addition, the TGI in experiment [6], in experiment [7] and in experiment [8] was greater than 100 µM each time.

With `O=c1cc(-c2ccccc2)[nH]c2ncccc12`, the TGI in experiment [1] was 0.414 µM; in [2] it was greater than 100 µM; in experiment [10] it was greater than 100 µM; in experiment [3], greater than 27.9 µM; in experiment [4], greater than 100 µM; in experiment [6], greater than 100 µM. For the same compound, the TGI in experiment [7] and in experiment [8] was greater than 100 µM throughout.
